Experimental data as given in patent US20020045271A1, “COMPOUNDS AND METHODS FOR IDENTIFYING COMPOUNDS THAT INTERACT WITH MICROSOMAL TRIGLYCERIDE TRANSFER PROTEIN BINDING SITES ON APOLIPOPROTEIN B AND MODULATE LIPID BIOSYNTHESIS” (LICATA AND TYRRELL P.C., priority 1998, published 2002).
Blank lines part the entries; values can stand above or below the molecule they belong to.

What was measured:
LDL/MTP binding [1] = target: T1, LDL/MTP binding (Bos taurus, UniProt P55156); assay: Effect of compounds on binding of LDL to immobilized MTP (ELISA); parameters: species or system human
T1 sequence (P55156 12-887): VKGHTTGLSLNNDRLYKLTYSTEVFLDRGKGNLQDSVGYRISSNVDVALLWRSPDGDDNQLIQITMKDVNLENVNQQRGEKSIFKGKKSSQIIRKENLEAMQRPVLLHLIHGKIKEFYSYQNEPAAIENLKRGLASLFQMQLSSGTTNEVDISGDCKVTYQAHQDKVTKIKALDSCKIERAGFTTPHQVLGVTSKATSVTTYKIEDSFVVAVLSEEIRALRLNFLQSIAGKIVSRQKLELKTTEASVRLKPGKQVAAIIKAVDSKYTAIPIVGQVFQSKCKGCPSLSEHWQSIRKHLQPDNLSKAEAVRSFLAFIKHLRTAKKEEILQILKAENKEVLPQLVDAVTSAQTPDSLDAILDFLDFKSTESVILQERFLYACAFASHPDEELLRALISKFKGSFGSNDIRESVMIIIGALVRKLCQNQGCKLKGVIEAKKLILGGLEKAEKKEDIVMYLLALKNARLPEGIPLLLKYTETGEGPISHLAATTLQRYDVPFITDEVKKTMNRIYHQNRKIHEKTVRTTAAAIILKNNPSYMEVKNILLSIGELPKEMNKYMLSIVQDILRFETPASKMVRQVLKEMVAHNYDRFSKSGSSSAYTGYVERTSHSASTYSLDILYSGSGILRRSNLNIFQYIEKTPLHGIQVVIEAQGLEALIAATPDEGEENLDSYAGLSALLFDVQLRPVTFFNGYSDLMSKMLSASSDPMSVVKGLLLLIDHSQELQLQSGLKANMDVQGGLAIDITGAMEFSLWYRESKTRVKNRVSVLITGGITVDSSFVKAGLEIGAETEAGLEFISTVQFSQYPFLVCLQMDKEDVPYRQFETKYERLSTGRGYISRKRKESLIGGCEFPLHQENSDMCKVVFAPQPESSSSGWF
T1 sequence (P05307 21-510 partner): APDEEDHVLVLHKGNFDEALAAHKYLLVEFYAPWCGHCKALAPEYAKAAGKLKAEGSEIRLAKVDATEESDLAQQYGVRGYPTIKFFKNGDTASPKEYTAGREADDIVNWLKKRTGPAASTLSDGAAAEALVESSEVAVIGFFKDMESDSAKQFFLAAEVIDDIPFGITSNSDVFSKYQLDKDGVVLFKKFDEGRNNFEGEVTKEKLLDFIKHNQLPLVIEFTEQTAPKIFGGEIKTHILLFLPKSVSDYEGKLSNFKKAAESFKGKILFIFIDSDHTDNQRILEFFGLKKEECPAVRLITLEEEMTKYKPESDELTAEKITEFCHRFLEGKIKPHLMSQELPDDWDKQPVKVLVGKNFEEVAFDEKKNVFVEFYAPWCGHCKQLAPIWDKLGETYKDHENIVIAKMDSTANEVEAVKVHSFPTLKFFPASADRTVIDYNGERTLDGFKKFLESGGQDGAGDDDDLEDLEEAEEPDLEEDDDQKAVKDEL
Description: (§1) Studies were performed to determine whether apoB/MTP binding was required for secretion of apoB-containing lipoproteins. Several compounds were screened. In the absence of any test compound, 15.47 fmol of low density lipoproteins (LDL)which contain ApoB was bound to immobilized MTP. Two test compounds, AGI-3 and AGI-S17, inhibited 70 to 90% of the binding at 40-50 μM concentrations. […] The effect of these same compounds on MTP's lipid transfer activity was also evaluated. BMS-200150 inhibited triglyceride transfer activity by 60% at concentrations in the range of 20 to 50 μM. AGI-3 inhibited only 20-30% of the activity at these same concentrations.
ELISA plates coated in triplicate with purified heterodimeric MTP (1 μg/well) were incubated with human LDL (1 μg/well) in the presence of indicated concentrations of various compounds. Microtiter wells were washed three times with PBS-Tween and apoB bound was quantitated by a sandwich ELISA (Hussain, M. M. et al. 1995 Arterioscl. Thronb. Vasc. Biol. 15:485-494). In parallel, a standard curve for apoB was generated by coating wells with a monoclonal antibody, 1D1, and incubating with different concentrations of LDL (0-14 ng/well) as previously described (Hussain, M. M. et al. 1995 Arterioscl. Thromb . Vasc. Biol. 15:485-494).

MTP = target: T2, MTP (Bos taurus, UniProt P55156); assay: MTP triglyceride transfer activity; type: biochemical; conditions: 20 to 50 μM
T2 sequence (P55156 12-887): T1 sequence (P55156 12-887)
T2 sequence (P05307 21-510 partner): T1 sequence (P05307 21-510 partner)
Description: as §1

LDL/MTP binding [2] = target: T1, LDL/MTP binding; assay: Effect of lipid vesicles on binding of LDL to immobilized MTP; conditions: for effect of inclusion in PC vesicles on PC-stimulated binding of LDL to MTP: added to PC vesicles
Description: The effect of lipids on the binding of MTP with apoB was also examined. Phosphatidylcholine (PC) and sphingomyelin increased the interactions by 2 and 1.5 times respectively. In similar studies, PC vesicles at a concentration of 2.4 mM increased the binding of LDL to MTP by 2 to 4 times. As a control, the effect of phospholipids on the binding of LDL to the monoclonal antibody 1D1 and polyclonal antibodies was studied. 1D1 binds to a portion of the MTP specific binding site on apoB. This antibody also recognizes all subclasses of VLDL and LDL, as well as delipidated apoB. […] The effect of PC vesicles on the interaction of apoB to polyclonal antibodies was studied by incubating immobilized LDL with the antibodies both in the presence and absence of PC. PC vesicles had no effect on binding.
To study the effect of triglycerides (TG) on apoB/MTP specific binding, PC vesicles or emulsions containing two different concentrations of TG were prepared and their effect on LDL binding to MTP was compared with those of PC vesicles with no TG.
The effect of different lipids was studied in more detail using PC-based vesicles (Table 3). Again, PC vesicles increased the binding of LDL to MTP by 3-fold.
Required amounts of lipids in chloroform were added to a glass vial and the solvent was evaporated under nitrogen gas. A calculated amount of the buffer (15 mM Tris-HCl, 1 mM EDTA, 0.02% sodium azide, pH 7.4) was added, and the contents were sonicated (setting 5, output 50-60%) on ice until the solution was mostly clear. The vesicles were then centrifuged at 3500 rpm for 15 minutes, 4° C., and the supernatant used to assay the effect of vesicles on binding.
LDL (20 nM) was incubated with immobilized MTP (1 μg/ml) in the presence and absence of different concentrations of PC or sphingomyelin vesicles for 2 hours at 37° C. and the amount of LDL bound quantitated. The amount of LDL bound in the absence of lipid vesicles was used as 100%. Parallel experiments were also performed wherein LDL (78 pM) was incubated with immobilized monoclonal antibody, 1D1, instead of MTP. LDL (20 nM) was also incubated with immobilized MTP in the presence of different concentrations of PC, PC/TG (molar ratio 400:1) vesicles, or PC/TG dispersions (molar ratio 1:1) for 2 hours at 37° C., and the amount of apoB bound was quantitated by ELISA.

immobilized LDL [3] = target: T3, immobilized LDL (Homo sapiens, UniProt P04114); assay: Binding of apoA-I and apoA-I/lipid complexes to immobilized LDL
Description: The binding of apoA-I and apoA-I/lipid complexes to immobilized LDL was examined. ApoA-I incubated with or without lipid vesicles was subjected to ultracentrifugation and apoA-I/lipid complexes were isolated. Binding of apoA-I and apoA-I/lipid complexes to immobilized LDL was then examined.
Target sequence in this assay (P04114 28-4563): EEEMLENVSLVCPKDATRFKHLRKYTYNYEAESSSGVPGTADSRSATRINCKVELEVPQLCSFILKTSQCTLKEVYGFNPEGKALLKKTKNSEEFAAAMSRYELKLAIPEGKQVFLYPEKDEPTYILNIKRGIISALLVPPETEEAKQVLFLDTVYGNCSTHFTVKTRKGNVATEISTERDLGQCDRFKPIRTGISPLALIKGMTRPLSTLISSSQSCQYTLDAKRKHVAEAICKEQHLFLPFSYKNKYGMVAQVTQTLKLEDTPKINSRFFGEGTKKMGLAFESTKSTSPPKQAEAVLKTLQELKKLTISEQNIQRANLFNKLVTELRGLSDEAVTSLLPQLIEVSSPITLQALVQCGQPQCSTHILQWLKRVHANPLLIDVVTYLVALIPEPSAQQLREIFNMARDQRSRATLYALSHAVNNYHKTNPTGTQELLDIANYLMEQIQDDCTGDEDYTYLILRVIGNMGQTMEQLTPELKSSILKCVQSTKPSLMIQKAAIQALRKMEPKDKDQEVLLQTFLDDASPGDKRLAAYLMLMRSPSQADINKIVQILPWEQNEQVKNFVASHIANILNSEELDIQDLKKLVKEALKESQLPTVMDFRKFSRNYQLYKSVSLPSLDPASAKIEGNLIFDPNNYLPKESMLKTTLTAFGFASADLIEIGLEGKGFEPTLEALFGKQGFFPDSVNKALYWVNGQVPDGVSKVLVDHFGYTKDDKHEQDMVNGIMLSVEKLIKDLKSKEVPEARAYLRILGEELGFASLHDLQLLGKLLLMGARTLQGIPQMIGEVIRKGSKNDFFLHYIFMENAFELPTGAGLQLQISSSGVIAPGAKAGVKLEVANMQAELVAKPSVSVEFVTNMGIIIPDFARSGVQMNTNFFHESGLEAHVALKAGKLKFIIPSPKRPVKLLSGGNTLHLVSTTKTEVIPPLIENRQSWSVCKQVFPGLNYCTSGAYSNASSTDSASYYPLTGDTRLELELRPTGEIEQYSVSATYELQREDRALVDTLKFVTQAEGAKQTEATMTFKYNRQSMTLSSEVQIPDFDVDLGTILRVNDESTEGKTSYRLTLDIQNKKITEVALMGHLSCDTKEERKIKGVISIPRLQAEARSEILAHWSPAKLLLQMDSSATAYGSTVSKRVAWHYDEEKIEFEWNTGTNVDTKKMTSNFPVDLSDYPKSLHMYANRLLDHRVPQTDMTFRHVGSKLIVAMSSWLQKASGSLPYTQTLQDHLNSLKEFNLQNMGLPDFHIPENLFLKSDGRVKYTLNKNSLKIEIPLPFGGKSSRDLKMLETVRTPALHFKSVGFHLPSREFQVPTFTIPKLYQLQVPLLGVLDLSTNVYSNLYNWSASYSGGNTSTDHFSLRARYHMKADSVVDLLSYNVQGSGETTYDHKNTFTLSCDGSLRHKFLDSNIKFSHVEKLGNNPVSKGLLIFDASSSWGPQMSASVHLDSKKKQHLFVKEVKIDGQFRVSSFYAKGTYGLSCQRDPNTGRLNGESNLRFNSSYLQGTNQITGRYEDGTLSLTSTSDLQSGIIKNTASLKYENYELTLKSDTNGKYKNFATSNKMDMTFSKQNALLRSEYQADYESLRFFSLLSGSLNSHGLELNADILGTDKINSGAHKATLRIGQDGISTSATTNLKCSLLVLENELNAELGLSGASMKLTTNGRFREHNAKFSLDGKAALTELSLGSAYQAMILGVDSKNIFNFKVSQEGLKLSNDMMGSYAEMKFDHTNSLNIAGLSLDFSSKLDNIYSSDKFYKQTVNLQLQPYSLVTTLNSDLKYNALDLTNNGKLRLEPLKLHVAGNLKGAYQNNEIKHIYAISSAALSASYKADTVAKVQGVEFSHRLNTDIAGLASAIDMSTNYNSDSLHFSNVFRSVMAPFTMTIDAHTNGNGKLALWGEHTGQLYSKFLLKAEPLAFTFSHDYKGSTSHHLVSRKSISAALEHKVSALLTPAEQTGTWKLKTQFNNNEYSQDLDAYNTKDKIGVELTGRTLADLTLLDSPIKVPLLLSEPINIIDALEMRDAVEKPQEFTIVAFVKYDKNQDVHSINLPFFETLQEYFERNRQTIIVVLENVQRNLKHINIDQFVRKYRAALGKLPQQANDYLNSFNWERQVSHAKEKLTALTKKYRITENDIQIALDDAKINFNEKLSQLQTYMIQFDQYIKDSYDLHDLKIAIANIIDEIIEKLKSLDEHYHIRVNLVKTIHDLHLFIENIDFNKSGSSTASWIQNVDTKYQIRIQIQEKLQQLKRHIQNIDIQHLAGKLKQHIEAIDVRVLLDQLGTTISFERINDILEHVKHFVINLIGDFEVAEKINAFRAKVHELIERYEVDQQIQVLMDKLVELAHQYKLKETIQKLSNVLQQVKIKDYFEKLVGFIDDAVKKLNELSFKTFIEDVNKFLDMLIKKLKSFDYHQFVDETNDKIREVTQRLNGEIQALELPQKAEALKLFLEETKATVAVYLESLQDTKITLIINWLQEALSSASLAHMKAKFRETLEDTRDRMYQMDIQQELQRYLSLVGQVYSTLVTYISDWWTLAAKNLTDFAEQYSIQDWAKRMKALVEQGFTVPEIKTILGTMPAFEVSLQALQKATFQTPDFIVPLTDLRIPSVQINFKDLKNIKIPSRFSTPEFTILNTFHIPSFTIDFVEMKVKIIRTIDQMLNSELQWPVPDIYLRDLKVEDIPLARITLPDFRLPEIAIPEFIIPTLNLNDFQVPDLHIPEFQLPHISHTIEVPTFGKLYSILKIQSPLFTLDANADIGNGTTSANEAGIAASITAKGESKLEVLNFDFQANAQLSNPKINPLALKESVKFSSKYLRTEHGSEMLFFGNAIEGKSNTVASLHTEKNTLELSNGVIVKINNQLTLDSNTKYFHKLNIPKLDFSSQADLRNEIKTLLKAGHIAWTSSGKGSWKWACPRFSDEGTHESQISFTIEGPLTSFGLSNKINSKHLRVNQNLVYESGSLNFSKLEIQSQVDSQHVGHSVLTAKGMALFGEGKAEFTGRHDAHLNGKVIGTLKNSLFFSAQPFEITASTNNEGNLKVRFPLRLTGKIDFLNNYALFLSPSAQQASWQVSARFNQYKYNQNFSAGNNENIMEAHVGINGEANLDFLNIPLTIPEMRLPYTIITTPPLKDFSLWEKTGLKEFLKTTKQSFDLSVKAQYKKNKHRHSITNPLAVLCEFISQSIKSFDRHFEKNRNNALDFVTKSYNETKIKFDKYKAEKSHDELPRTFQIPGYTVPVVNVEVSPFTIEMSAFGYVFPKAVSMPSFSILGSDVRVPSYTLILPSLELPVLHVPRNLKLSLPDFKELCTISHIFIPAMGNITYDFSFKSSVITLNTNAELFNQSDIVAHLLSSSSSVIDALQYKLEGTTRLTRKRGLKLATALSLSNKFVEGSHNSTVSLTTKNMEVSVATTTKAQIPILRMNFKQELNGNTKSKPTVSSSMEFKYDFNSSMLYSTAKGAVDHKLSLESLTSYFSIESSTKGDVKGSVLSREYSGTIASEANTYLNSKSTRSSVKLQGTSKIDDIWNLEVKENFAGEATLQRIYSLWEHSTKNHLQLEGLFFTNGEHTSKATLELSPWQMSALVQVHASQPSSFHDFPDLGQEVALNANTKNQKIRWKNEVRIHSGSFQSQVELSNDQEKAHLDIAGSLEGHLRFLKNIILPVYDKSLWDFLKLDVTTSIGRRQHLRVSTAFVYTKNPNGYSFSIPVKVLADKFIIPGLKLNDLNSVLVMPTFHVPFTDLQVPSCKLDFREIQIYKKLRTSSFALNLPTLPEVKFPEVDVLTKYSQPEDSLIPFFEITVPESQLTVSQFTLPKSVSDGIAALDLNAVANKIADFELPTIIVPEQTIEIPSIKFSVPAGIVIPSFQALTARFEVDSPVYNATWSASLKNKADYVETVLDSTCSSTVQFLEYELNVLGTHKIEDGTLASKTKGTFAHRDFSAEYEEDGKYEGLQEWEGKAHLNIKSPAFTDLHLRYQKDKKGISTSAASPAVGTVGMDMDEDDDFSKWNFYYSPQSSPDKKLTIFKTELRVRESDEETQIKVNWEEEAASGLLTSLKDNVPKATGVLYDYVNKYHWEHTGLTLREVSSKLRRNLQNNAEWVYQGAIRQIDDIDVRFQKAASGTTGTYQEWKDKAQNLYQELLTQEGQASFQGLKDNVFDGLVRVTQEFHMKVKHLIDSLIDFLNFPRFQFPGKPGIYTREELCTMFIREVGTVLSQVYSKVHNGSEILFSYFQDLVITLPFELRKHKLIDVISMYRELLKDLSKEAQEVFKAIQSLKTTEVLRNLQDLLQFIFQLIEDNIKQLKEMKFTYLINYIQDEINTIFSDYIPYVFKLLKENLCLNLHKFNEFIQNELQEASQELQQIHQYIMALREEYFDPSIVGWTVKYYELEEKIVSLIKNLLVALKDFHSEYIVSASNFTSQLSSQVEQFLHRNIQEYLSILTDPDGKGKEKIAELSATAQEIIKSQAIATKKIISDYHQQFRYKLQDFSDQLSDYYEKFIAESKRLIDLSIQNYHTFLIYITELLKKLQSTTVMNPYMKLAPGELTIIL

immobilized LDL [4] = target: T3, immobilized LDL; assay: Binding of 125I-MTP / MTP fractions to immobilized LDL
Description: The effect of phospholipids on the kinetic parameters of apoB-MTP binding was examined. […] No significant binding of LDL to MTP could be observed at low concentrations (≦3 nM) in the absence of vesicles. However, the effect of vesicles was significant at ≦12.5 nM of LDL. […] In four other experiments, decreases in Kd ranged between 1.5- to 3-fold. The effect of phospholipid vesicles on the binding of ^125I-MTP to immobilized LDL was also examined.
To study the binding of lipid associated MTP with LDL, peaks A, B, and C were pooled, dialyzed and then used to study binding to immobilized LDL. The binding of lipid-poor MTP (peak B), which might have acquired few lipid molecules during its incubation with lipid vesicles, to LDL was increased (70%, P<0.005) compared to the binding of MTP not incubated with lipids (peak A). […] These studies indicate that lipid-associated MTP binds better to LDL as compared to lipid-poor and lipid-free MTP. It is believed that MTP forms stable complexes with phospholipid vesicles and these MTP/lipid complexes have higher affinity for apoB.
Target sequence in this assay (P04114 28-4563, one chain of several): as the sequence (P04114 28-4563) above

effect on LDL/MTP binding (LDL/MTP binding [1]): did not effect LDL/MTP binding | inhibition of triglyceride transfer activity (MTP): 60%
Molecule: O=C1c2ccccc2CN1C1CCN(CCC(c2ccccc2)c2ccccc2)CC1 [BMS-200150]

effect of inclusion in PC vesicles on PC-stimulated binding of LDL to MTP (LDL/MTP binding [2]): no additional effect
Molecule: CC(C)CCC[C@@H](C)[C@H]1CC[C@H]2[C@@H]3CC=C4C[C@@H](O)CC[C@]4(C)[C@H]3CC[C@]12C [cholesterol]

binding to immobilized LDL compared to free apoA-I (immobilized LDL [3]): significantly less
Molecule: apoA-I/lipid complexes: apoA-I incubated with lipid vesicles, complexes isolated by ultracentrifugation

increase of binding to immobilized LDL compared to MTP not incubated with lipids (peak A) (immobilized LDL [4]; P<0.005): 70%
Molecule: peak B: lipid-poor MTP fraction recovered after incubation with PC vesicles, fractions 21-24

amount bound to LDL compared to MTP alone (immobilized LDL [4]): three-fold higher
Molecule: peak C: MTP associated with lipid vesicles, fractions 3-9

effect of inclusion in PC vesicles on PC-stimulated binding of LDL to MTP (LDL/MTP binding [2]): significantly decreased
Molecule: phosphatidyl inositol [PI]

effect of inclusion in PC vesicles on PC-stimulated binding of LDL to MTP (LDL/MTP binding [2]): significantly decreased
Molecule: phosphatidyl serine [PS]

effect on LDL binding to MTP (LDL/MTP binding [2]; PC vesicles with or without TG): no additional effect
Molecule: triglycerides [TG]
